# Test results as given in patent US8637045B2, “Therapy for lysosomal enzyme deficiencies” (University of Massachusetts, priority 2004, dated 2014).
# Assays:
# [1] = target: T1, β-glucosidase (Mus musculus, UniProt P17439); assay: Gaucher mouse model produced with conduritol beta-epoxide; format: in vivo, mice
# T1 construct: from tissue; host or cells: tissues of C57/Bl mice dosed in vivo with CBE
# T1 sequence (P17439 20-515): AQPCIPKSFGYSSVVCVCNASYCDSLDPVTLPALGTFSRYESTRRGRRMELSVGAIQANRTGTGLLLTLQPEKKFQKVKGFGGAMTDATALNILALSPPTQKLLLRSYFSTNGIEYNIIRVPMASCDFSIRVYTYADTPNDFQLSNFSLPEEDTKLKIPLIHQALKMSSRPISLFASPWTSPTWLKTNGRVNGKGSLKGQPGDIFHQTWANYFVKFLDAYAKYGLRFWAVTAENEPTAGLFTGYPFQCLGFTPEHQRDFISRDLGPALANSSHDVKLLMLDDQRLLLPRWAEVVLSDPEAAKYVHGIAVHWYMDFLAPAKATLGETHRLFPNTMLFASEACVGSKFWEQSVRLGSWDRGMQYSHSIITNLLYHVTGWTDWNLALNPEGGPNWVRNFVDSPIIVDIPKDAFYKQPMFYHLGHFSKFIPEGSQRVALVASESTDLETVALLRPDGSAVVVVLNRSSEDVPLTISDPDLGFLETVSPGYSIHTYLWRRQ
# Procedure: Two mouse models of Gaucher disease were used. The first Gaucher mouse was produced by injecting C57/Bl mice with 100 mg/kg of conduritol beta-epoxide, (CBE, 7-oxabicyclo[4.1.0]heptane-2,3,4,5-tetrol), intraperitoneally daily for 3 weeks. Three weeks of treatment of 3 month old C57/Bl mice with CBE produced an approximately 50% and 500% increase in the amount of glucosylceramide in systemic tissues and brain, respectively. […] No weight or behavioral differences occurred in 3 month old treated mice. […] Expressed as percentages of total body weight there was no difference for brain, liver, and kidney, but the spleen weight was 60% of control. […] There was a 50% and 300% increase in glucocerebroside in liver tissue and brain, respectively.
# [2] = test system: S. aureus; assay: S. aureus killing by J774 murine macrophages loaded with YGP particles; format: cell-based
# Procedure: One ml of murine macrophages, J774 (5×10^5/ml) was combined with YGP, YGP:alginate—tet or tetracycline of various concentration as summarized in Table 6, above.
# The J774 cells were cultured overnight in medium (DMEM containing 10% fetal calf serum without antibiotics or glutamine). […] The microbial killing assay was set up in 96 well plates. The cultures were diluted in medium and incubated overnight to allow for metabolism and release of tet from phagocytosed YGP:alginate—tet particles. Bacterial challenge was added as indicated in Table 7 and the cultures were incubated 2 hours at 37 degrees Celsius in a CO2 incubator to permit S. aureus phagocytosis and killing by the J774 murine macrophages. After this incubation, 200 μl LB Broth (Luria-Bertani Broth: 1.0% tryptone, 0.5% yeast extract, 1.0% NaCl) was added to each culture to lyze the macrophages. Cultures were incubated at 37 degrees Celsius in an incubator to permit outgrowth of surviving S. aureus. Growth was monitored by change in pH as indicated by phenol red. The effects of YGP, YGP:alginate—tet or tetracycline were compared.
# [3] = 3 month old C57/Bl mice, 100 mg/kg intraperitoneally daily for 3 weeks
# [4] = 1 day old infant C57/Bl mice, 100 mg/kg IP daily for 3 weeks
"increase in the amount of glucosylceramide in brain [1, 3] [%]","increase in the amount of glucosylceramide in systemic tissues [1, 3]","increase in glucocerebroside in brain [1, 4] [%]","increase in glucocerebroside in liver tissue [1, 4] [%]","β-glucosidase activity ([1]; C57/Bl mice, 100 mg/kg intraperitoneally daily for 3 weeks)",SMILES,"spleen weight (as percentage of total body weight) [1, 4]","S. aureus Killed ([2]; with J774, 1.25 μg/ml)","Fold Increased Killing ([2]; with J774, 2.5 μg/ml)","S. aureus Killed ([2]; with J774, 2.5 μg/ml)","S. aureus Killed ([2]; with J774, 5 μg/ml)","S. aureus Killed ([2]; with J774, 10 μg/ml)","Fold Increased Killing ([2]; without J774, 1.25 μg/ml)","S. aureus Killed ([2]; without J774, 1.25 μg/ml)","S. aureus Killed ([2]; without J774, 2.5 μg/ml)","S. aureus Killed ([2]; without J774, 5 μg/ml)","S. aureus Killed ([2]; without J774, 10 μg/ml)"
~500,approximately 50%,300,50,drastic reduction,"OC1C(O)C(O)C2OC2C1O (stereo not shown) [CBE, 7-oxabicyclo[4.1.0]heptane-2,3,4,5-tetrol]",60 % of control,,,,,,,,,,
,,,,,"CN(C)[C@@H]1C(O)=C(C(N)=O)C(=O)[C@@]2(O)C(O)=C3C(=O)c4c(O)cccc4[C@@](C)(O)[C@H]3C[C@@H]12 [tet, tetracycline]",,1 × 10^6,3.3,1 × 10^7,>1 × 10^8,>1 × 10^8,1,1 × 10^6,3.3 × 10^6,>1 × 10^8,>1 × 10^8
